Measurements from publication PMC9555310, “Novel inhibitors and activity-based probes targeting serine proteases” (Frontiers in Chemistry, 2022).

Columns and labels:
trypsin = target: T1, trypsin (Sus scrofa, UniProt P00761); test: Activity-based profiling of trypsin (SDS-PAGE, streptavidin-HRP western blot); format: binding, porcine; settings: added 30 min prior to NAP830
T1 construct: purchased Sigma-Aldrich; host or cells: porcine pancreas
Experimental: Samples of recombinant protease (trypsin, plasmin, thrombin, chymotrypsin, or HNE, as indicated in the relevant figure legends) were treated with each of the newly synthesized compounds at a concentration of 50 μM, for 30 min, at 37°C. A control sample (no ABP) was prepared by treating the recombinant protease with solvent vehicle (DMF) only, used to prepare the stock solution of each ABP. Samples were also pre-treated (±90°C for 30 min) before being incubated with each putative ABP. With trypsin and thrombin, further samples were prepared where Z-Arg^P-(OPh)2 or NAP559, respectively, was added 30 min prior to the addition of the ABP under examination. All treated samples were then denatured with SDS containing reducing treatment buffer (10 min at 95°C), followed by resolution by SDS-PAGE and subjected to Western blotting. Resolved proteins were then transferred onto the nitrocellulose membrane and labeled with streptavidin-HRP. […]
Following transfer, the extra protein binding sites on the membrane were blocked by addition of 3% (w/v) BSA in TBST (20 mM Tris, 137 mM NaCl, 1% (v/v) Tween 20, pH 7.6) and agitated gently at room temperature for 30 minutes. The biotin-labelled proteases were then detected by addition of Streptavidin-HRP (Vector Laboratories) in 3% (w/v) BSA in TBST at a concentration of 1:20000, for 1 hour at room temperature. […]

neutrophil elastase (NE) = target: T2, neutrophil elastase (NE) (Homo sapiens, UniProt P08246); set-up: method as in Gilmore et al. (2009); settings: ref Gilmore et al. (2009); cited from earlier work
T2 construct: purchased Calbiochem
T2 sequence (P08246 30-267): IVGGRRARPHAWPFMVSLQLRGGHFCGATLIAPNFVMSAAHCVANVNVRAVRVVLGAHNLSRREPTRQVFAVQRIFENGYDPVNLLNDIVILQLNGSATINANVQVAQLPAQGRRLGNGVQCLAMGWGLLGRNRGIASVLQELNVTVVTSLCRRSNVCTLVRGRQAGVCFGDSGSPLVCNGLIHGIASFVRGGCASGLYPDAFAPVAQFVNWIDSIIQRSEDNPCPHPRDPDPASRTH

T1 sequence (P00761 9-231): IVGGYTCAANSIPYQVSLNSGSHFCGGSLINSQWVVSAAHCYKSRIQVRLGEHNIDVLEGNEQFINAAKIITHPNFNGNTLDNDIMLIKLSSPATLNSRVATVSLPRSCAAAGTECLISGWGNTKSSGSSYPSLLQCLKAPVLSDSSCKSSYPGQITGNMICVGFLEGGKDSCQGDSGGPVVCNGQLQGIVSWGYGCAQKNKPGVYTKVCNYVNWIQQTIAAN

Molecule | effect of pre-treatment of trypsin on signal detected by NAP830 (trypsin) | k 3 / K i (neutrophil elastase (NE)) [M⁻¹ s⁻¹]
NC(N)=NCCCC(NC(=O)OCc1ccccc1)P(=O)(Oc1ccccc1)Oc1ccccc1 (centres unmarked) [Z-Arg^P-(OPh)2, reference compound] | quenching/diminution in the signal detected by NAP830 | 
biotin-PEG-succinyl-Val^P-(OPh)2 [QUBEL1] |  | 215
